Measured values: patent publication US20170114128A1, “USE OF TGF-BETA ANTAGONISTS OF TREAT TYPE-2 DIABETES” (ALBERT EINSTEIN COLLEGE OF MEDICINE, INC., priority 2014, published 2017)

Tested on: hypothalamic RNA SGs/PBs genes, IκBα mRNA, Pomc mRNA
Assay: Hypothalamic mRNA levels and HuR immunostaining after third-ventricle TGF-β1
Format: in vivo, mice
Text: POMC neurons direct the pro-T2D effect of TGF-β excess: It was subsequently studied if hypothalamic neurons are critical for the pro-diabetic effects of brain TGF-β excess. […] It was studied if POMC neurons could be crucial for the pro-diabetic effect of brain TGF-β excess. […] To carry out this study, a genetic mouse model was generated with Tgfbr2 knockout specifically in POMC neurons by crossing Tgfbr2lox/lox mice with POMC-Cre mice. As a result, compound offspring POMC-Tgfbr2lox/lox mice were obtained and littermate control Tgfbr2lox/lox mice. These mice were maintained on normal chow feeding or 3-week HFD feeding. […] Taken together, the action of TGF-β in POMC neurons is important for the pro-diabetic effect of brain TGF-β excess. POMC-Cre can target other types of neurons during the developmental stage (34), thus, the pro-diabetic mechanism of TGF-β may involve additional hypothalamic or brain neurons.
Induction of hypothalamic RNA SGs/PBs by TGF-β or HFD: In exploring how TGF-β could activate hypothalamic NF-κB without requiring pro-inflammatory kinase signaling, attention was directed to a possible role from mRNA regulation. In coping with inflammatory stress, eukaryotic cells can develop a process known as RNA stress response which is characterized by RNA stress granules (SGs) and processing bodies (PBs) (36-38). In this reaction, messenger ribonuclear protein (mRNP) byproducts exit from polysomes and form RNA SGs at discrete cytoplasmic foci. RNA SGs primarily consist of poly(A)+mRNAs-containing 48S pre-initiation complexes, small ribosomal subunits, mRNA decay factor tristetraprolin (TTP), translation initiation factors such as eukaryotic translation initiation factor-4E (eIF4E), eIF4G, eIF4A, eIF4B, poly(A)-binding protein (PABP), and RNA helicases (36-38). RNA stress response can lead to the export of mRNPs into the PBs, a complex which harbors an array of mRNA decay machineries that act to dispose mRNAs from SGs or polysomes (36-38). PBs contain nontranslating mRNAs, translation repressors, mRNA decay machineries (including 5′-3′ mRNA decay system, nonsense-mediated decay pathway, and RNA-induced silencing complex), and mRNA decay factors such as TTP, eIF4E, DEAD box RNA helicase family member p54/RCK, […] (CPEB), B-related factor 1/RNA polymerase III transcription initiation factor IIIB subunit (BRF1), eukaryotic translation initiation factor 4E transporter (4-ET), and RNA-binding protein Smaug (36-38). […] In line with these observations, we examined if the morphology of RNA SGs could be detected in the hypothalamus of these mice. […] Consistently, these morphological changes were found in the hypothalamus of HFD-fed mice but almost not chow-fed mice (supplementary FIG. 6b). […]

In the case of “TGF-β1: transforming growth factor-β1 (Sigma), cytokine dissolved in artificial cerebrospinal fluid for third-ventricle injection”, the “HuR-containing aggregates in perinuclear regions of hypothalamic cells” value (HuR immunostaining) is reported as “present”, the “hypothalamic increases of RNA SGs/PBs genes” value (injection into the third ventricle of normal mice (4 ng), similar to 3-month HFD) is reported as “similarly induced” and the “hypothalamic IκBα mRNA levels” value (intra-third ventricle injection (4 ng)) is reported as “sufficient to decrease”. The “Pomc mRNA levels in the hypothalamus vs controls” value (mouse, in vivo) was “lower”.
